“And” between values parts separate entries of the source, which are not always exact repeats. Identical values can stand only once. Like-named read-outs stand apart in the source and are kept apart here.
Experiments:
[1] = tested on: splicing of Ad2.1 pre-mRNA substrate; experiment: In vitro splicing (IVS) assay, Ad2.1 substrate, HeLa S3 nuclear extracts, RT-qPCR; assay type: biochemical, human; conditions: Ad2.1 (strong) substrate
Text: (§1) A substrate competitive mechanism of action (MOA) would predict that weaker pre-mRNA substrates would be easier to inhibit than stronger substrates. To date, it has not been possible to evaluate substrate competition using traditional steady-state conditions because splicing reactions are thought to be single-turnover events in vitro, and therefore it is not possible to measure a KM for the pre-mRNA. […] Specifically, we engineered the strong in vitro splicing substrate Ad2.1 by enhancing the U2 snRNP base-pairing around the BPA found in the Ad2 substrate. We then engineered a weaker substrate, Ad2.2, by adding a decoy BPS lacking an extrahelical adenosine (Ad2.2) (Fig. 5A; Supplemental Vector NTI files; [Corrionero et al. 2011]). […] We then evaluated E7107 and several chemical probes to better understand their mechanism.
(§2) Figure 5. […] (A) Base-pairing logic for IVS substrates. (BPRS) Branch point recognition sequence in U2 snRNA; (BPS) the BPS in the pre-mRNA. The Ad2 gene BPS sequence (UACUUAU) was modified (UACUAAU) to strengthen the U2 base-pairing interactions flanking the BPA, leading to the Ad2.1 substrate (BPA in red). The Ad2.2 sequence has the same BPS as Ad2 but also contains a 5′ decoy BPS sequence (lacking an extrahelical adenine) that can base-pair with the BPRS. The decoy BPS and suboptimal BPS overlap, which gives U2 at least two possibilities for possible base pairing, as indicated. […] (B) RT-qPCR time-course data showing product formation over time. […] (C) Representative IC50 curves for compound 6 using the two different substrates (Ad2.1 and Ad2.2).
(§3) The Ad2-derived ([Pellizzoni et al. 1998]) sequence was cloned into the pGEM-3Z vector (Promega) using 5′ EcoRI and 3′ XbaI restriction sites. The Ad2 variant (Ad2.2) ([Seiler et al. 2018]) was cloned into pcDNA3.1(+) vector (Promega) using the same restriction sites. The plasmids were linearized using XbaI and used as DNA templates in the in vitro transcription reactions. The FtzΔi intron-less plasmid ([Luo and Reed 1999]) was linearized using EcoRI. All RNAs were in vitro transcribed and then purified using MegaScript T7 and MegaClear kits, respectively (Invitrogen). For splicing reactions used with the Ad2.2 substrate, […] reactions were prepared using 8 µg of nuclear extracts prepared from HeLa S3, a saturating excess of 2 ng of pre-mRNA substrate, 0.2 ng of FTZΔi, and varying concentrations of compounds or DMSO.

[2] = tested on: splicing of Ad2.2 pre-mRNA substrate; experiment: In vitro splicing (IVS) assay, Ad2.2 substrate, HeLa S3 nuclear extracts, RT-qPCR; assay type: biochemical, human; conditions: for inhibition of strong and weak IVS substrates: Ad2.1 and Ad2.2 substrates compared; for IC50: Ad2.2 (weak) substrate
Text: as §1, §2, §3

HCT116-PHF5A^R38C = experiment: CellTiter-Glo viability assay, HCT116-PHF5A^R38C; assay type: cell-based, human; conditions: for GI50: Homo sapiens, 72 h, read-out: HCT116-PHF5A^R38C GI50
Protocol: (§4) To further validate the pose of the compound, we analyzed the activity of several related chemical probes using the SPA with the purified protein complex ([Teng et al. 2017]). The SPA is formatted as a competition assay in which the purified protein complex is captured on a bead containing scintillant, incubated with test compounds over a dose response, and then competed off with a fixed concentration of ^3H-Plad compound. IC50 curves are then measured from the resulting light emitted from the bead (Table 1; Supplemental Fig. S4). In addition, we tested the probes in viability assays in two engineered cell lines: HCT116-PHF5A^WT and the sensitization line HCT116-PHF5A^R38C (Table 1; Supplemental Fig. S5). This facilitates profiling of chemical probe activity in the PHF5A background (wild type and mutant). The relative expression levels were further confirmed by Western blot analysis (Supplemental Fig. S5).
(§5) Parental HCT116 cells were obtained from American Type Culture Collection and cultured in RPMI 1640 medium supplemented with 10% fetal bovine serum. PHF5A R38C was generated using the Agilent QuikChange II kit and was cloned into pLenti6.3/V5 as described ([Teng et al. 2017]). The verified clone was used for lentivirus production using X293T cells. Parental HCT116 cells were infected with virus and selected with blasticidin S at 10 µg mL^−1 for 1 wk. Engineered cell lines were subsequently maintained in the absence of antibiotic. Transgene expression was confirmed by Western blot analysis (Supplemental Fig. S4). For Western blot analysis, α-PHF5A rabbit polyclonal antibody (Protein Tech, 15554-1-AP) was used at 1:1000 dilution in LI-COR buffer, and anti-rabbit secondary antibody (LI-COR) was used at 1:5000 dilution. The Western blot was imaged using an Odyssey V3.0 imager (LI-COR). For CellTiter-Glo analysis of the wild-type and PHF5A^R38C cell lines, 500 cells were seeded in each well of a 384-well plate 1 d before compound addition. Dose response was measured in 11-point serial dilutions with a top dose of 10 µM. The percentage of DMSO was controlled throughout, and a DMSO-only control was included. Seventy-two hours after dosing, CellTiter-Glo reagent was added, incubated, and assayed on an EnVision multilabel reader (PerkinElmer). Luminescence values from each treatment were normalized to the average value of the respective DMSO control. The dose response curve plots were generated in GraphPad Prism, and GI50 values were calculated from nonlinear regression analysis. GI50 values for the wild-type and R38C mutant cell lines were plotted in Spotfire.

HCT116-PHF5A^WT = experiment: CellTiter-Glo viability assay, HCT116-PHF5A^WT; assay type: cell-based, human; conditions: for GI50: Homo sapiens, 72 h, read-out: HCT116-PHF5A^WT GI50
Protocol: as §4, §5

[3] = target: T1, wild-type mini-SF3b complex (4-protein SF3b complex) (Homo sapiens, UniProt O75533+Q7RTV0); experiment: Scintillation proximity assay (SPA) competition with 3H-labeled pladienolide probe; assay type: binding; conditions: for activity after truncating the diene tail: assays of Table 1
T1 construct: SF3B1 was limited to the HEAT repeat domain from residues 454–1304 and cloned in-frame with an N-terminal Flag tag; Truncated SF3B1 and full-length SF3B3, PHF5A, and SF3B5 were synthesized; made in house; host or cells: SF21 insect cells (baculovirus, pFastBac1)
Protocol: as §4
Batch immobilization of the anti-Flag antibody (Sigma) to the anti-mouse PVT SPA scintillation beads (PerkinElmer) was prepared as follows. For every 1.5 mg of beads, 10 µg of antibody was prepared in 150 µL of PBS. The antibody–bead mixture was incubated for 30 min at room temperature and centrifuged at 18,000g for 5 min. One-hundred-fifty microliters of PBS was used to resuspend every 1.5 mg of antibody–bead mixture. The aforementioned mini-SF3b complex was tested for ^3H-labeled pladienolide probe binding ([Kotake et al. 2007]). One-hundred microliters of binding reactions was prepared with […] of bead slurry and 0 or 50 nM protein in buffer (20 mM HEPES at pH 8, 200 mM KCl, 5% glycerol). The mixture was incubated for 30 min, and varying concentrations of ^3H-labeled pladienolide probe were added. The mixture was incubated for 30 min, and luminescence signals were read using a MicroBeta2 plate counter (PerkinElmer). Compound competition studies were performed with the wild-type mini-SF3b complex. One-hundred microliters of binding reactions was prepared with 50 µL of bead slurry, 25 nM protein in buffer, and compounds at varying concentrations. After 30 min of preincubation, 10 nM ^3H-labeled pladienolide probe was added. The reactions were incubated for 30 min, and luminescence signals were read.
The Scintillation proximity assay (SPA) competition assay with 10 nM 3H tracer for different Pladienolide analogs binding to the 4-protein SF3b complex. Error bars represent STD for 2 or more measurements. Red = E7107, Orange = PladD, Purple = PladF, Green = compound 2, red = compound 3, gray = compound 4, black = compound 5, blue = compound 6. […]

[4] = tested on: HCT116 cell lines overexpressing PHF5A WT and mutants; experiment: Viability curves in HCT116 cell lines overexpressing PHF5A WT and mutants; assay type: cell-based, human
Protocol: Parental HCT116 cells were obtained from American Type Culture Collection and cultured in RPMI 1640 medium supplemented with 10% fetal bovine serum. […] Parental HCT116 cells were infected with virus and selected with blasticidin S at 10 µg mL^−1 for 1 wk. Engineered cell lines were subsequently maintained in the absence of antibiotic. Transgene expression was confirmed by Western blot analysis (Supplemental Fig. S4). For Western blot analysis, α-PHF5A rabbit polyclonal antibody (Protein Tech, 15554-1-AP) was used at 1:1000 dilution in LI-COR buffer, and anti-rabbit secondary antibody (LI-COR) was used at 1:5000 dilution. The Western blot was imaged using an Odyssey V3.0 imager (LI-COR). For CellTiter-Glo analysis of the wild-type and PHF5A^R38C cell lines, 500 cells were seeded in each well of a 384-well plate 1 d before compound addition. Dose response was measured in 11-point serial dilutions with a top dose of 10 µM. The percentage of DMSO was controlled throughout, and a DMSO-only control was included. Seventy-two hours after dosing, CellTiter-Glo reagent was added, incubated, and assayed on an EnVision multilabel reader (PerkinElmer). Luminescence values from each treatment were normalized to the average value of the respective DMSO control. The dose response curve plots were generated in GraphPad Prism, and GI50 values were calculated from nonlinear regression analysis. […]

[5] = competition with 10 nM 3H-labeled pladienolide probe, 25 nM protein, read-out: SPA IC50

T1 sequence (Q7RTV0 whole entry, the tested form may be a part): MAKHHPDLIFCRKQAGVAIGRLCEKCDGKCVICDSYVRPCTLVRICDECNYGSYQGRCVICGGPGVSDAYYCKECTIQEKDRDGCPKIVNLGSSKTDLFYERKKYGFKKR
T1 sequence (Q15393 whole entry, further chain, the tested form may be a part): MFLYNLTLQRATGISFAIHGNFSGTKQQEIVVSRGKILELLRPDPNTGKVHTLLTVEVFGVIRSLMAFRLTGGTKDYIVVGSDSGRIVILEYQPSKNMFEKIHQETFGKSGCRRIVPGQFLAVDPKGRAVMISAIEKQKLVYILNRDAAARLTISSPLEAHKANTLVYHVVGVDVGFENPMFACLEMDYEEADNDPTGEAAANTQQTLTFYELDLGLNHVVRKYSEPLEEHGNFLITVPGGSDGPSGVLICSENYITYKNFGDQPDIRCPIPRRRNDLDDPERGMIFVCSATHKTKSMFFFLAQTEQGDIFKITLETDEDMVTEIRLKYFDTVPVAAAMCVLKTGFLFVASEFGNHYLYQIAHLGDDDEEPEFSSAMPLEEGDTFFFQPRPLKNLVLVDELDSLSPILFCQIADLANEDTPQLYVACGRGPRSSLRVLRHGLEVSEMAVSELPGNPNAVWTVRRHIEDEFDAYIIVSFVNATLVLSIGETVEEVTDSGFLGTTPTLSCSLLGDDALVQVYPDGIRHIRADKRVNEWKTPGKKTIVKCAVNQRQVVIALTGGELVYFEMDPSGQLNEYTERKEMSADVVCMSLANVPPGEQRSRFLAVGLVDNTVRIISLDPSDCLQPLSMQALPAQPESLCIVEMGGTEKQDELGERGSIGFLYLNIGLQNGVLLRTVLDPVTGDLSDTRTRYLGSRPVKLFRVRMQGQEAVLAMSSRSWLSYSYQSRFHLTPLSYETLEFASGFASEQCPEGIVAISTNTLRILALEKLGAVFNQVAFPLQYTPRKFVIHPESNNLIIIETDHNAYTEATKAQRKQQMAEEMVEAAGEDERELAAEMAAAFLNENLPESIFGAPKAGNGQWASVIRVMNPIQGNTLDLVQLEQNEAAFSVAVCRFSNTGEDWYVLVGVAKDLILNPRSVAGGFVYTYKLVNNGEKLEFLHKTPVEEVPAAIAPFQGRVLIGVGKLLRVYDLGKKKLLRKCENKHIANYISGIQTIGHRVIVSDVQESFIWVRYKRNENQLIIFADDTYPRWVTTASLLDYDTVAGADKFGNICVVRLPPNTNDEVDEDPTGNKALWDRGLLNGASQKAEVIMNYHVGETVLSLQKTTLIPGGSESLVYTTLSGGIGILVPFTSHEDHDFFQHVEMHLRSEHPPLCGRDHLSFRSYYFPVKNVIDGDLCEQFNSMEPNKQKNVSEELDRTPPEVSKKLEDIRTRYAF
T1 sequence (O75533 454-1304): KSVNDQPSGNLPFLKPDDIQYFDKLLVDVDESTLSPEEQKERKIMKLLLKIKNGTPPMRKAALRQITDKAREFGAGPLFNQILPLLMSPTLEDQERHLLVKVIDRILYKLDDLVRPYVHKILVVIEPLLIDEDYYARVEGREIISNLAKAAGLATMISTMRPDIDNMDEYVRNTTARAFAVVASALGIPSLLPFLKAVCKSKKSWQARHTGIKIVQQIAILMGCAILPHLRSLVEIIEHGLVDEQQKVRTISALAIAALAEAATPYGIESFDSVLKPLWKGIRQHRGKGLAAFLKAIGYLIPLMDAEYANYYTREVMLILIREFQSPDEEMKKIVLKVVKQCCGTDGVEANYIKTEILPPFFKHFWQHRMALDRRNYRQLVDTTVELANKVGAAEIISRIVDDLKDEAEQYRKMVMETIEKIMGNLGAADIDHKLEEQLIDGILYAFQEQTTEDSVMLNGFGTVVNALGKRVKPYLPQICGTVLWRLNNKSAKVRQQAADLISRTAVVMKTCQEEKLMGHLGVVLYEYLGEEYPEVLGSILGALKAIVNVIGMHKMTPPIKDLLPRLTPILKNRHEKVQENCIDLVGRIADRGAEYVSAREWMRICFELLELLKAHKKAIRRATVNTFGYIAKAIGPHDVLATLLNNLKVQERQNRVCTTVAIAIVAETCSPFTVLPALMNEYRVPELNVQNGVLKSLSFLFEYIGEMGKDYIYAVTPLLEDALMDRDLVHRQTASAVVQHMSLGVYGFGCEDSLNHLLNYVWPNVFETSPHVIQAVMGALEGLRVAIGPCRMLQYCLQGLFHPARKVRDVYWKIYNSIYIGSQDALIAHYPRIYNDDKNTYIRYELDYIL
T1 sequence (Q9BWJ5 whole entry, further chain, the tested form may be a part): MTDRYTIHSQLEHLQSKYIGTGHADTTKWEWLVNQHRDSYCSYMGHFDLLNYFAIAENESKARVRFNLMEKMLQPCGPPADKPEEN

Molecule | IC50 [1] | IC50 [2] | GI50 (HCT116-PHF5A^R38C; CellTiter-Glo) [nM] | GI50 (HCT116-PHF5A^WT; CellTiter-Glo) [nM] | IC50 [3, 5] [nM] | PHF5A^R38C sensitization phenotype (words) (HCT116-PHF5A^R38C; R38C vs wild type) | also measured
CCC(O)C(C)C1OC1CC(C)(O)C=CC=C(C)C1OC(=O)CC(O)CCC(C)(O)C(OC(=O)N2CC[N+](C)(C3CCCCCC3)CC2)C=CC1C (centres unmarked) [Compound 1] | 177 nM and 184 nM | 184 nM and 177 nM | > 400 | > 400 |  |  | inhibition of strong and weak IVS substrates [2]: inhibit both the strong and weak substrates equally well
CCC(O)C(C)C1OC1CC(C)(O)C=CC=C(C)C1OC(=O)CC(O)CCC(C)(O)C(OC(=O)N2CC[N+](Cc3ccccc3)(C3CCCCCC3)CC2)C=CC1C (centres unmarked) [Compound 2] |  |  |  |  | 236 |  | GI50 (HCT116-PHF5A^R38C): 259 nM; GI50 (HCT116-PHF5A^WT): > 400 nM
CCC(O)C(C)C1OC1CC(C)(O)C=CC=C(C)C1OC(=O)CC(OC(=O)C2CC2)CCC(C)(O)C(OC(=O)N2CCN(C3CCCCCC3)CC2)C=CC1C (centres unmarked) [Compound 3] | > 25000 nM | 966 nM | 243 | > 400 | > 4000 |  | activity in the SPA binding assay ([3]; relative to E7107): total loss of activity
C/C(=C\C(=O)O)[C@H]1OC(=O)C[C@H](O)CC[C@@](C)(O)[C@@H](OC(=O)N2CCN(C3CCCCCC3)CC2)/C=C/[C@@H]1C [Compound 4] | > 25000 nM | > 25000 nM | > 400 | > 400 | > 4000 |  | activity after truncating the diene tail [3]: completely eliminates activity
C/C(=C\CO)[C@H]1OC(=O)C[C@H](O)CC[C@@](C)(O)[C@@H](OC(=O)N2CCN(C3CCCCCC3)CC2)/C=C/[C@@H]1C [Compound 5] | > 25000 nM | 16000 nM | > 400 | > 400 | > 4000 |  | activity after truncating the diene tail [3]: completely eliminates activity
C/C(=C\C=C\[C@@H](C)c1ccccn1)[C@H]1OC(=O)C[C@H](O)CC[C@@](C)(O)[C@@H](OC(=O)N2CCN(C3CCCCCC3)CC2)/C=C/[C@@H]1C [Compound 6] | > 25000 nM | 23 nM | 11 | 34 | 376 |  | inhibition of strong and weak IVS substrates [2]: inhibit only the weak substrate; loss of potency relative to E7107 in the SPA ([3]; relative to E7107): sixfold; loss of potency relative to E7107 in viability assays (HCT116-PHF5A^WT): ~10 fold
CCC(O)C(C)C1OC1CC(C)(O)C=CC=C(C)C1OC(=O)CC(O)CCC(C)(O)C(OC(C)=O)C=CC1C (centres unmarked) [Plad D] |  |  |  |  |  |  | PHF5A^R38C sensitization phenotype (words) (HCT116-PHF5A^R38C): did not observe this trend; GI50 (HCT116-PHF5A^R38C): 18 nM; IC50 [3]: 97 nM; activity in the SPA binding assay [3]: nearly equipotent to E7107; GI50 (HCT116-PHF5A^WT): 26 nM
CCC(O)C(C)C1OC1CC(C)(O)C=CC=C(C)C1OC(=O)CC(O)CCC(C)(O)C(O)C=CC1C (centres unmarked) [Plad F] | > 25000 nM | 171 nM | > 400 | > 400 | 1500 |  | inhibition of strong and weak IVS substrates [2]: inhibit only the weak substrate; loss of potency relative to E7107 in the SPA ([3]; relative to E7107): 20 fold; loss of potency relative to E7107 in viability assays (HCT116-PHF5A^WT): > 200 fold
CC(C)C[C@H](NC(=O)[C@H](Cc1ccccc1)NC(=O)c1cnccn1)B(O)O [bortezomib] |  |  |  |  |  | lie near the line of unity | killing of cell lines irrespective of PHF5A mutation status [4]: kills all of the cell lines at the same concentration
CO[C@H]([C@@H](C)[C@H]1O[C@]1(C)C[C@H](C)/C=C/C=C(\C)[C@H]1O[C@@H](CC(=O)O)CC[C@@H]1C)[C@@H](C)O [herboxidiene] |  |  |  |  |  | not and did not exhibit this sensitization phenotype and lie near the line of unity | 
CO[C@]1(C)C[C@@]2(CO2)[C@H](O)[C@@H](/C=C/C(C)=C/C[C@@H]2O[C@H](C)[C@H](NC(=O)/C=C\[C@H](C)OC(C)=O)C[C@@H]2C)O1 [spliceostatin] |  |  |  |  |  | did not exhibit this sensitization phenotype | PHF5A^R38C sensitization phenotype (words) (HCT116-PHF5A^R38C; R38C vs wild type, listed as Spliceostatin): lie near the line of unity
pladienolide B [PladB] |  |  |  |  |  | did not observe this trend | 

— article PMC5859971 (Genes & Development, 2018)
